# Data as given in US12312641B2, “Sensitivity marker for antibody-drug conjugate” (priority 2018, dated 2025).
# Read-outs that look alike come from different tables or passages of the source.
# B1: antibody-drug conjugate (1): humanized anti-hTROP2 antibody (SEQ ID NO: 1 residues 20-470, SEQ ID NO: 2 residues 21-234) conjugated to the exatecan-derivative drug-linker via a thioether bond (conjugate, chains of the INN, looked up)
# VH: QVQLVQSGAEVKKPGASVKVSCKASGYTFTTAGMQWVRQAPGQGLEWMGWINTHSGVPKYAEDFKGRVTISADTSTSTAYLQLSSLKSEDTAVYYCARSGFGSSYWYFDVWGQGTLVTVSS
# VL: DIQMTQSPSSLSASVGDRVTITCKASQDVSTAVAWYQQKPGKAPKLLIYSASYRYTGVPSRFSGSGSGTDFTLTISSLQPEDFAVYYCQQHYITPLTFGQGTKLEIK
# modifications: exatecan-derivative drug-linker
# How the values were obtained:
# Type in all cases: cell-based
# [1] = system: Human lung cancer cell line Calu-3; assay: Cell proliferation inhibition test upon SLFN11 knockdown, Calu-3
# Method: (§1) Human lung cancer cell line Calu-3 was obtained from ATCC and used for evaluation. Calu-3 cells suspended at 2×10^3 cells/mL in a MEM medium containing a non-essential amino acid solution, a pyruvic acid solution and 10% bovine fetal serum were seeded in a 10 cm cell culture dish at 10 mL/dish. Twenty-four hours after seeding, 100 pmol of ON-TARGETplus SLFN11 siRNA (Dharmacon Inc.) or ON-TARGETplus Non-targeting Control Pool (Dharmacon Inc.) and 30 μL of Lipofectamine™ RNAiMAX Transfection Reagent (Thermo Fisher Scientific Inc.) were suspended in 1 mL of Opti-MEM medium, and the entire amount of the suspension was added to the medium. After 72 hours, the medium was removed and the dish was washed with PBS, then the cells were dissociated and recovered from the dish using 1 mL of TrypLE™ Express. The recovered cells were suspended at 5×10^4 cells/mL in a MEM medium containing a non-essential amino acid solution, a pyruvic acid solution and 10% bovine fetal serum, and seeded in a 96-well cell culture plate at 100 μL/well. Twenty-four hours after seeding, the medium was replaced with a medium containing 100 nM, 33 nM, 11 nM, 3.7 nM, 1.2 nM, 0.41 nM, 0.13 nM, 0.045 nM, or 0 nM of compound (1) or antibody-drug conjugate (1) at 100 μL/well. The molar concentration of antibody-drug conjugate (1) was calculated by setting the average molecular weight to 150,000. Cells were all cultured at 37° C. under 5% CO2. After 72 hours from the medium replacement, ATPlite 1 step detection system (PerkinElmer Inc.) was added at 100 μL/well. The wells were incubated at room temperature for 10 minutes, then the luminescence intensity of each well was measured.
# (§2) The cell growth inhibition rate (%) at each condition was calculated using the following calculation formula: Cell growth inhibition rate (%)=100×(1−T/C) • T: Average luminescence intensity of each well to which specimen was added • C: Average luminescence intensity of each well to which 0 nM specimen was added
# (§3) The 50% inhibitory concentration at each condition was calculated by fitting to the following calculation formula: Cell viability (%)=(Emax−Emin)×Specimen concentration^γ/((Emax−50)/(50−Emin)×IC50^γ+Specimen concentration^γ)+Emin • Emax: maximum cell growth inhibition rate (%) • Emin: minimum cell growth inhibition rate (%) • IC50: 50% inhibitory concentration • γ: Hill coefficient
# (§4) The fitting to the calculation formula was performed using SAS Systems Release 9.2 (SAS Institute Inc.).
# [2] = system: Human pharyngeal cancer cell line FaDu; assay: Cell proliferation inhibition test upon SLFN11 knockdown, FaDu; conditions: for Cell proliferation inhibitory effect upon SLFN11 knockdown: FaDu cell lines, SLFN11 siRNA vs Non-targeting Control; for Fold change (SLFN11/Non-targeting Control): ratio of IC50
# Method: Human pharyngeal cancer cell line FaDu was obtained from ATCC and used for evaluation. FaDu cells suspended at 2×10^3 cells/mL in a MEM medium containing a non-essential amino acid solution, a pyruvic acid solution and 10% bovine fetal serum were seeded in a 10 cm cell culture dish at 10 mL/dish. Twenty-four hours after seeding, 100 pmol of ON-TARGETplus SLFN11 siRNA (Dharmacon Inc.) or ON-TARGETplus Non-targeting Control Pool (Dharmacon Inc.) and 30 μL of Lipofectamine™ RNAiMAX Transfection Reagent (Thermo Fisher Scientific Inc.) were suspended in 1 mL of Opti-MEM medium, and the entire amount of the suspension was added to the medium. After 72 hours, the medium was removed and the dish was washed with PBS, then the cells were dissociated and recovered from the dish using 1 mL of TrypLE™ Express. The recovered cells were suspended at 5×10^4 cells/mL in a MEM medium containing a non-essential amino acid solution, a pyruvic acid solution and 10% bovine fetal serum, and were seeded in a 96-well cell culture plate at 100 μL/well. Twenty-four hours after seeding, the medium was replaced with a medium containing 100 nM, 33 nM, 11 nM, 3.7 nM, 1.2 nM, 0.41 nM, 0.13 nM, 0.045 nM, or 0 nM of compound (1) or antibody-drug conjugate (1) at 100 μL/well. The molar concentration of antibody-drug conjugate (1) was calculated by setting the average molecular weight to 150,000. Cells were all cultured at 37° C. under 5% CO2. After 72 hours from the medium replacement, ATPlite 1 step detection system (PerkinElmer Inc.) was added at 100 μL/well. The wells were incubated at room temperature for 10 minutes, then the luminescence intensity of each well was measured.
# as §2, with “growth inhibition rate(%) at each” for “growth inhibition rate (%) at each”
# as §3, §4
# [3] = system: Human breast cancer cell line MDA-MB-468; assay: Cell proliferation inhibition test upon SLFN11 knockdown, MDA-MB-468
# Method: as §1, with “breast” for “lung”, “MDA-MB-468” for “Calu-3”, “RPMI-1640” for “a MEM”, “containing” for “containing a non-essential amino acid solution, a pyruvic acid solution and”, “[…]” for “pmol”
# as §2, §3, §4
Molecule,"Cell proliferation inhibitory effect upon SLFN11 knockdown ([1]; Calu-3 cell lines, SLFN11 siRNA vs Non-targeting Control)","Fold change (SLFN11/Non-targeting Control) ([1]; Calu-3 cells, ratio of IC50)","IC50 ([1]; Homo sapiens, Calu-3, 72 h, read-out: IC50 (nM) Non-targeting Control Pool) [nM]","IC50 ([1]; Homo sapiens, Calu-3, 72 h, read-out: IC50 (nM) SLFN11 siRNA) [nM]",Cell proliferation inhibitory effect upon SLFN11 knockdown [2],Fold change (SLFN11/Non-targeting Control) ([2]; FaDu cells),"IC50 ([2]; Homo sapiens, FaDu, 72 h, read-out: IC50 (nM) Non-targeting Control Pool) [nM]","IC50 ([2]; Homo sapiens, FaDu, 72 h, read-out: IC50 (nM) SLFN11 siRNA) [nM]","IC50 ([3]; Homo sapiens, MDA-MB-468, 72 h, read-out: IC50 (nM) Non-targeting Control Pool) [nM]","IC50 ([3]; Homo sapiens, MDA-MB-468, 72 h, read-out: IC50 (nM) SLFN11 siRNA) [nM]","Cell proliferation inhibitory effect upon SLFN11 knockdown ([3]; MDA-MB-468 cell lines, SLFN11 siRNA vs Non-targeting Control)","Fold change (SLFN11/Non-targeting Control) ([3]; MDA-MB-468 cells, ratio of IC50)","IC50 ([1]; Calu-3 cells, Non-targeting Control Pool, 72 hours, ATPlite, read-out: IC50 (nM) Non-targeting Control Pool) [nM]","IC50 ([1]; Calu-3 cells, SLFN11 siRNA knockdown, 72 hours, ATPlite, read-out: IC50 (nM) SLFN11 siRNA) [nM]","IC50 ([2]; FaDu cells, Non-targeting Control Pool, 72 hours, ATPlite, read-out: IC50 (nM) Non-targeting Control Pool) [nM]","IC50 ([2]; FaDu cells, SLFN11 siRNA knockdown, 72 hours, ATPlite, read-out: IC50 (nM) SLFN11 siRNA) [nM]","IC50 ([3]; MDA-MB-468 cells, Non-targeting Control Pool, 72 hours, ATPlite, read-out: IC50 (nM) Non-targeting Control Pool) [nM]","IC50 ([3]; MDA-MB-468 cells, SLFN11 siRNA knockdown, 72 hours, ATPlite, read-out: IC50 (nM) SLFN11 siRNA) [nM]"
CC[C@@]1(O)C(=O)OCc2c1cc1n(c2=O)Cc2c-1nc1cc(F)c(C)c3c1c2[C@@H](NC(=O)CO)CC3 [Compound (1)],attenuated by SLFN11 knockdown,>4.8,20.9,> 100,attenuated by SLFN11 knockdown,8.6,3.6,30.8,4.8,27.5,attenuated by SLFN11 knockdown,5.7,,,,,,
B1,,,,,attenuated by SLFN11 knockdown,>2.3,,,,,,,> 100,> 100,42.6,> 100,> 100,> 100
